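The compound was tested at five concentrations on cells cultured in 96-well plates, with a 48-hour exposure period. At the TGI there is no net growth.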
Tests used:
Experiment in all cases: DTP human tumour cell line panel, 48 h
A549 NSCLC = test system: A549 NSCLC
786-0 renal = test system: 786-0 renal
HT29 colon = test system: HT29 colon
HCT-116 colon = test system: HCT-116 colon
SN12C renal = test system: SN12C renal
HOP-62 NSCLC = test system: HOP-62 NSCLC
MOLT-4 leukemia = test system: MOLT-4 leukemia
RPMI-8226 leukemia = test system: RPMI-8226 leukemia
MDA-MB-435 = test system: MDA-MB-435
TK-10 renal = test system: TK-10 renal
UACC-257 melanoma = test system: UACC-257 melanoma
NCI-H460 lung = test system: NCI-H460 lung
BT-549 breast = test system: BT-549 breast
SNB-19 CNS = test system: SNB-19 CNS
K-562 leukemia = test system: K-562 leukemia
LOX IMVI melanoma = test system: LOX IMVI melanoma
SK-MEL-28 melanoma = test system: SK-MEL-28 melanoma
SR leukemia = test system: SR leukemia
HCC-2998 colon = test system: HCC-2998 colon

Measured: TGI

CC1=NNC(=O)C1C1CC(c2c[nH]c3ccccc23)=NN(C(N)=O)C1=O (stereo not given)
not listed: SR leukemia | HCC-2998 colon
> 100 µM: all other assays above

CC1CC/C(=C\c2ccc(N(C)C)cc2)C2=C1C(c1ccc(N(C)C)cc1)NC(=S)N2 (stereo not given)
not listed: A549 NSCLC | HOP-62 NSCLC | NCI-H460 lung | SR leukemia | HCC-2998 colon
> 100 µM: all other assays above

COC(=O)C1=COC(OC2OC(CO)C(O)C(O)C2O)C2C3CN4CCc5c([nH]c6ccccc56)C4(CC12)O3 (stereo not given)
not listed: MDA-MB-435 | HCC-2998 colon
> 100 µM: all other assays above

CC1(C)C2CC(O)C1CCC2=O (stereo not given)
not listed: SR leukemia
> 100 µM: all other assays above

COC(=O)C(C)(C)[C@@H]1OC(=O)N(S(=O)(=O)c2c(C)cc(C)cc2C)[C@H]1C(C)C
not listed: BT-549 breast
> 100 µM: all other assays above

[N-]=[N+]=Nc1c(Cl)c(Cl)nc2ccccc12
not listed: BT-549 breast
> 100 µM: all other assays above

C[Si](C)(N[Si](C)(C)OCCc1ccccc1)OCCc1ccccc1
not listed: A549 NSCLC | MOLT-4 leukemia | K-562 leukemia | SR leukemia
> 100 µM: all other assays above

CN(C)CCCNC(=O)CCNC(=O)c1cc(NC(=O)c2cc(NC(=O)c3cc(NC(=O)c4nccn4C)cn3C)cn2C)cn1C
not listed: SR leukemia
> 100 µM: all other assays above
